Data as given in patent US20070167399A1, “Therapeutic drug for traumatic neural disease (disorder) and/or motor function disorder” (Glycoscience Laboratories, Inc., priority 2006, published 2007).

Key:
[1] = tested on: rat spinal cord injury model; assay: Spinal cord evoked potential (SCEP) in rat spinal cord injury model, crush method with forceps; assay type: in vivo; settings: 60 μg/animal into the dura, seventh day after spinal cord injury, compared with saline-administered group
Procedure: (§1) A spinal cord injury model (crush model with forceps) was prepared as described below. Twelve-week-old male Wistar rats were used as experimental animals. The animals were shaved from neck to hip with an electric clipper under pentobarbital anesthesia (50 mg/kg body weight) and the skin was cleansed with 70% ethanol and Isodine (product of Meiji Seika Kaisha, Ltd.). After dorsal skin incision, the thoracic spine from T5 to T10 was exposed, the sixth thoracic spine (T6 thoracic spine) was subjected to hemi-laminectomy, and a small incision was made on the dura. Following local anesthesia with Xylocaine (Astra Zeneca), a forceps (with the tip trimmed to 0.3 mm) was inserted at the position of T6 until its tip reached the vertebral body, and the spinal cord was crushed by sandwiching it from both sides for 10 sec. […]
On the seventh day after the injury of the spinal cord, endotracheal intubation was performed into the experimental animal under halothane anesthesia (4.0% at the beginning, 1.0% during maintenance). […] Catheter electrodes were inserted into the experimental animal from the space between the second/third cervical vertebrae and the space between the 13th thoracic vertebra/first lumbar vertebra, and spinal cord evoked potential (SCEP) was measured with an electromyograph (Counterpoint, Dantec) after applying a supramaximal stimulus (stimulus frequency; 1 Hz, duration; 0.05 msec). […]

MRL-lpr/lpr mouse = settings: administration of L4; Xu H et al. (2005); cited from earlier work
[2] = tested on: rat spinal cord injury model; assay: Hind limb motor function (BBB scale) in rat spinal cord injury model, crush method with forceps; assay type: in vivo; settings: 60 μg/animal into the dura, seventh day after spinal cord injury, compared with physiological saline-administered group
Procedure: as §1
After injury of the spinal cord, the hind limb motor function was assessed daily for 7 days by two independent blind examiners according to the method of Basso et al. (refer to Basso D M et al (1995), (1996)) using Basso-Beeattie-Bresnahan (BBB) Scale, and their average score was taken as a final assessment score. […]
The BBB score was evaluated using Tukey's nonparametric multiple comparison test.

interleukin-12 (IL-12) = settings: reported by Asari et al. (Xu H et al. (2005)); cited from earlier work

In the case of `CC(=O)N[C@H]1C(O)O[C@H](COS(=O)(=O)O)[C@@H](O[C@@H]2O[C@H](COS(=O)(=O)O)[C@H](O)[C@H](O)[C@H]2O)[C@@H]1O` (stereo partly drawn) [L4, Gal(6S)β1-4GlcNAc(6S)], the “spinal cord evoked potential (SCEP) amplitude” value [1] is given as “a tendency for a recovery in the SCEP amplitude”, the “IL-12 concentration in the blood” value (MRL-lpr/lpr mouse) is given as “reduces IL-12 concentration in the blood” and the “cell death of T lymphocytes” value (MRL-lpr/lpr mouse) is given as “induces cell death of T lymphocytes”. The “size of lymphatic organs (lymph node and spleen)” value (MRL-lpr/lpr mouse) was “causes shrinking of lymphatic organs”, the “hind limb motor function (BBB score)” value [2] was “significant recovery in hind limb motor function (P<0.001)” and the “effect on interleukin-12 (IL-12) expression” value (interleukin-12 (IL-12)) was “has an inhibitory effect on interleukin-12 (IL-12) expression”.
